Test results: ChEMBL document CHEMBL3507680, “University of Dundee, Gates Library screen for HepG2 cell viability”

Assay: Human HepG2 cell viability assay in 384 well format
Format: toxicity, cell-based
Set-up: dose 125 nL, time 70.5 hour; cytotoxicity at 70.5 h: concentration not given beside the values
Conditions: HepG2 cells, read-out: Inhibition

SMILES	cytotoxicity at 70.5 h [%]
CCOCC1CN(Cc2cccnc2)Cc2nn(C)cc21 (configuration not stated)	-11.3
Cn1cc(C2CCCN2C(=O)COC2CCCCC2)cn1 (configuration not stated)	-11.1
CC1=C(c2ccc(C(C)C)cc2)S(=O)(=O)N=C1N1CCc2ccccc21	33.6
CCOCCC1(CNC(=O)c2ccncc2)CCC1	-5.08
Cc1ccc(-c2ccc(C(=O)NCCS(N)(=O)=O)c(F)c2)cc1	-3.69
CCS(=O)(=O)N1Cc2ncn(CC3CC3)c2C(COCC2CC2)C1 (configuration not stated)	1.64
CN(Cc1cnn(C)c1)C(=O)C1COCC(=O)N1Cc1ccccc1 (configuration not stated)	-4.96
COc1ccc(CN(C)C(=O)Cc2c(C)nn(C)c2C)cc1F	2.24
Cc1ccc2nc(C)c(C)c(C(=O)NCCCn3ccnn3)c2c1	3.79
COCC(O)CN(C)C(=O)NCc1ccc(-c2ccn[nH]2)cc1 (configuration not stated)	-85.9
CN(C)c1cc(CNC(=O)Nc2ccc(C#N)cc2)ccn1	-11.3
CSCc1noc(CN2CCC3(CC2)CC(=O)N(CC(C)C)C3)n1	-2.72
CC1Oc2c(cccc2C(=O)N2CCCCCC2)NC1=O (configuration not stated)	29.3
Cc1cnc(C(=O)N2CCc3c(nc(-c4ccncc4)[nH]c3=O)C2)cn1	-3.01
Cc1cccc(NC(=O)[C@@H]2CCCN2CC(=O)Nc2ccccc2)n1	-6.38
CN1CCC(NC(=O)c2cc(C3CCCCC3)nc3ccccc23)CC1	-2.29
CCN(CC)C(=O)CCNC(=O)Cc1nc(-c2ccco2)oc1C	4.78
O=C(NCc1ccccc1)N1Cc2nc(COCC3CC3)oc2C1	4.6
CCS(=O)(=O)c1ncc(CN(C)Cc2ccc(C)o2)n1CCOC	17.1
CCCN1CCN(C(=O)c2cc3ccccc3cn2)[C@H]2CS(=O)(=O)C[C@H]21	-12
CC(C)c1cc(NC(=O)CNC2CCc3nc(C(C)C)nn3C2)on1 (configuration not stated)	4.46

SMILES	cytotoxicity at 70.5 h [%]
c1ccc(-c2ncc3c(n2)C2(CCN(CC4CC4)C2)COC3)cc1 (configuration not stated)	15.2
Cc1ccnc(N2C[C@@H]3CC[C@H](C2)N(CC2CCC2)C3=O)n1	9.42
COCCN1C[C@@H]2[C@@H](OC)CCN(Cc3ccco3)[C@@H]2C1	-3.76
COCc1ccc(C(=O)N2CCC(Oc3ccccc3OC)CC2)s1	-15
CCN1CCN(C(=O)Cc2ccc(S(=O)(=O)C(F)F)cc2)CC1	5.94
CCOc1ccc(SCCNS(=O)(=O)CC)cc1	-11.3
CS(=O)(=O)N1CCOCC2(CCN(Cc3ccoc3)CC2)C1	-3.92
O=C(Cc1ccc2c(c1)OCCO2)NC1CCN(CC(F)F)CC1	-19.5
CC(C)NC(=O)c1ccc2c(c1)C1(CCN(C(C)C)CC1)C(=O)N2	0.266
CCOC(=O)N1CCC(NC(=O)Nc2cccnc2OCC)CC1	6.34
CN(Cc1cccnc1)CC1CN(C(N)=O)Cc2nccn2C1 (configuration not stated)	-2.38
CN(C)CCN1CCC2(CC1)CN(c1cccnc1)C(=O)CO2	-13.5
CC(C)CN1CCn2nc(CNc3ncnc4[nH]cnc34)cc2C1	10.6
CN(CC(=O)NC(N)=O)CC1(c2ccc(Br)cc2)CC1	-1.35
COc1cccc(CNCc2cccc(Cl)c2)c1O	-4.96
CCCn1cnnc1CN(C)C(=O)C1CCC(=O)N(C2CCCC2)C1 (configuration not stated)	-3.21
Cc1nc(Nc2ncccn2)cc(C2CCCN2C(C)C)n1 (configuration not stated)	-14
CN(CCCc1nccn1C)C(=O)C1CCN(C(=O)C2CC2)CC1	0.477
CS(=O)(=O)N[C@H]1CCO[C@]2(CCN(C(=O)c3ccccn3)C2)C1	-3.91
O=C(Nc1cnn(Cc2ccccc2)c1)N1CCN(CCO)CC1	-4.22
CCc1sc(C(=O)N2CCC(Nc3ccc(C)nn3)CC2)cc1C	-14.5

SMILES	cytotoxicity at 70.5 h [%]
Cc1nc(CN(C)C(=O)C2CCC(=O)N(CCN(C)C)C2)cs1 (configuration not stated)	11.1
CN(Cc1nnc2ccccn12)C(=O)CCC1CCCC1	-8.63
CN(C)[C@H]1C[C@@H](Cc2cc(CO)on2)C1(C)C	-14.4
CN(C)C(=O)N1CCN(C(=O)C(c2ccccc2F)N(C)C)CC1 (configuration not stated)	-4.32
COc1ccc(CN2CCC=C(C(C)NC(C)=O)C2)cc1 (configuration not stated)	-10.1
O=C(c1cccc(O)c1)N1CCN(Cc2nnc(C3CCC3)o2)CC1	23.6
CSc1nc2ccsc2c(=O)n1CC(=O)N1CCCCC1C (configuration not stated)	-9.11
Cc1cccnc1NC(=O)C1CCN(C(=O)C(C)C)CC1	-19.2
Cc1nn(C)cc1C(=O)N1CCCC(c2nccn2CC2CCC2)C1 (configuration not stated)	-28.4
COc1cc(CN2CCC(COCc3ccccc3)CC2)cc(OC)c1	19.3
N#Cc1c(SCCN2CCCCCC2)sc2c(O)cc(O)nc12	12.1
Cc1cnn(C2CN(Cc3nc4cc(Cl)ccc4n3C)C2)c1	7.22
CC(=O)NCC1CCN(C(=O)c2ccc(Sc3ccccn3)cc2)CC1	-16.7
CCCc1noc(CNC2CCCN(Cc3noc(C4CC4)n3)C2)n1 (configuration not stated)	-3.33
CCCC1(CO)CCCN(Cc2ncccn2)C1 (configuration not stated)	-5.25
CCCc1cnc(C)nc1N1CCC(Cn2cc(CO)nn2)CC1	-3.5
CC(NC(=O)NCC1(c2ccc(F)cc2)CCCC1)c1nncn1C (configuration not stated)	-3.48
Cc1cnccc1Cn1ccnc1C1CCOC1 (configuration not stated)	-7.66
CC(C)C[C@H](NC(=O)Cn1ccc2c(Cl)cccc21)C(=O)O	-15.2
N#Cc1cccc(CN2CCn3cc(CNC(=O)C4CCC4)nc3C2)c1	-6.27
Cc1cccc2c1nc1n2[C@@H](CNC(=O)c2cnccn2)COC1	12.8

SMILES	cytotoxicity at 70.5 h [%]
c1csc(CN2CC[C@H]3O[C@@H](COCC4CC4)CC[C@H]32)c1	27
CCC(C(=O)Nc1ccc2c(C)n[nH]c2c1)N1CCCC1=O (configuration not stated)	21.5
CC(Cc1cn(CCc2nc(N)cc(O)n2)nn1)c1ccccc1 (configuration not stated)	-11.4
Cc1ncsc1C(=O)N(C)Cc1cccnc1	-9.5
CS(=O)(=O)Cc1cc(Cl)c2c(c1)OCCCO2	-3.38
O=C(Cc1cccc(F)c1)NCCNCc1cccnc1	-4.1
Cc1cc(C(=O)N2CCCC(c3nncn3C)C2)no1 (configuration not stated)	-5.95
CC(C)[C@@H]1CN(C(=O)c2ccsc2)C[C@H]1C(=O)O	-6.74
CCn1cc(CNC2CCN(c3c(F)cccc3F)C2)cn1 (configuration not stated)	-0.658
Cc1cccc(C(=O)Nc2c(C(=O)N(C)C)nn(C)c2C)c1	-3.25
CCOCC1CN(C(=O)Cc2cccs2)Cc2ccnn2C1 (configuration not stated)	-9.44
CC(NCc1cnc(N2CCOCC2)nc1)c1ccc(Cl)s1 (configuration not stated)	-9.24
CC(O)CCN(C)c1nc2ccccc2c(=O)[nH]1 (configuration not stated)	-6.49
Cc1noc(C)c1CN1CCc2cnn(C)c2C1COCC1CC1 (configuration not stated)	-3.84
Nc1ccnc(-c2cc(NC3CCNCC3)nc3[nH]ccc23)c1	-3.27
CNc1ncc(C(=O)N2CCOC(C(=O)Nc3ccccc3)C2)cn1 (configuration not stated)	-2.73
CNS(=O)(=O)CCNCC1(O)CCCN(CCC2CCCCC2)C1=O (configuration not stated)	-0.181
O=C(c1ccc(F)c(F)c1)N1CCCC1CN1CCCC1 (configuration not stated)	-1.66
Cc1nn(C)c2ncc(CN3CCCCCC3)cc12	-5.07
